Data from paper PMC10931745 (International Journal of Molecular Sciences, 2024).

Assays:
[1] = ABTS radical scavenging assay; format: biochemical
Experimental: The radical scavenging properties of the complexes on a 2,20-azino-bis(3-ethylbenzothiazoline-6-sulfonate) radical cation (ABTS^+) were evaluated as previously described.
All the complexes were used at different concentrations (5, 10, 25, 50, and 100 µg/mL) and the ABTS radical scavenging activity, measured at 730 nm using a microplate reader, was expressed as inhibition percentages (%IABTS) compared tothe control, according to the following expression:(3) IABTS (%)=ABSCTRL−ABSsample/ABSCTRL∗100 where ABSCTRL and ABSsample are the absorbance at 730 nm in the control and in the presence of samples, respectively.
IC50 values were calculated from the %IABTS using GraphPad Prism 9 software (GraphPad Inc., San Diego, CA, USA). Trolox was employed as a positive control, while caffeine and theophylline were reference compounds.

[2] = DPPH radical scavenging assay; format: biochemical
Experimental: The radical scavenging properties of the complexes on the 1,1-diphenyl-2-picrylhydrazil (DPPH) radical were evaluated as previously described.
All the complexes were used at different concentrations (10, 25, 50, 100, and 200 µg/mL) and the DPPH radical scavenging activity, measured at 517 nm using a microplate reader, was expressed as inhibition percentages (%IDPPH) compared to the initial concentration of DPPH (control) according to the following expression:(2) IDPPH (%)=ABSCTRL−ABSsample/ABSCTRL∗100 where ABSCTRL and ABSsample are the absorbance at 517 nm in the control and in the presence of samples, respectively.
The obtained IDPPH percentages allowed us to calculate the IC50 values using Graph-Pad Prism 9 software (GraphPad Inc., San Diego, CA, USA). Trolox was employed as a positive control, while caffeine and theophylline were reference compounds.

MCF-7 = test: MTT cell viability assay; format: cell-based, human
Experimental: (§1) The cell lines used were purchased from American Type Culture Collection (ATCC, Manassas, VA, USA). Human breast cancer cells MCF-7 and MDA-MB-231, human mammary epithelial cell line MCF-10A, and mouse BALB/3T3 embryonic fibroblasts were cultured as already described by some of us. The murine macrophage cell line RAW 264.7 was maintained in Dulbecco’s Modified Eagle’s Medium (DMEM) high glucose (4.5 g/L) supplemented with 10% Fetal Bovine Serum (FBS), 1% L-glutamine, and 100 units/mL of penicillin/streptomycin. The cell cultures were maintained at the temperature of 37 °C in a humidified atmosphere containing 5% CO2.
(§2) The 3-(4,5-dimethylthiazol-2-yl)-2,5-diphenyl-2H-tetrazolium bromide (MTT) assay (Sigma Aldrich (St. Louis, MO, USA)) was carried out to study the in vitro anticancer activities of the complexes, following the previously reported protocol. The cells were incubated for 72 h with different concentrations of the tested compounds (0.1, 1, 10, 25, 50, 100, and 500 µM) and the IC50 values were calculated from the percent (%) of control using the software GraphPad Prism 9 (GraphPad Software, La Jolla, CA, USA).

MDA-MB-231 = test: MTT cell viability assay; format: cell-based, human
Experimental: as §1, §2

[3] = tested on: human mammary epithelial cell line MCF-10A; test: MTT assay, toxicity towards normal cells; format: cell-based; conditions: 72 h
Experimental: as §1, §2

[4] = tested on: Escherichia coli (ATCC 25922); test: MIC/MBC broth dilution; format: cell-based; conditions: for MIC: Escherichia coli, ATCC25922
Experimental: (§3) The bacterial strains used for MIC and MBC value determinations expressed as µg/mL by the broth dilution method, according to CLSI guidelines, were the following:
(§4) -4 Gram-negative: Escherichia coli (ATCC® 25922^TM) and Klebsiella pneumoniae (ATCC® 13883^TM);
(§5) Increasing concentrations of the complexes (50, 70, 100, 150, and 200 µg/mL) were incubated with bacteria plated in 96-well microplates at 37 °C overnight as already reported, and then bacterial growth was checked at a wavelength of 600 nm using a Multiskan spectrophotometer (model Multiskan Ex Microplate; Thermo Scientific, Nyon, Switzerland). MIC or MBC values were obtained by comparing cell density with a positive control (bacterial cells grown in LB medium were added with only the vehicle, DMSO). The results were representative of three independent experiments performed in triplicate. Ampicillin, Gentamicin, and Cephalosporin (Sigma Aldrich A9393) were used as the control for strain sensitivity.

[5] = tested on: Klebsiella pneumoniae (ATCC 13883); test: MIC/MBC broth dilution; format: cell-based; conditions: for MIC: Klebsiella pneumoniae, ATCC13883, read-out: M.I.C. K. pneumoniae
Experimental: as §3, §4, §5

[6] = tested on: Enterococcus faecalis (ATCC 19433); test: MIC/MBC broth dilution; format: cell-based; conditions: for MIC: Enterococcus faecalis, ATCC19433, read-out: M.I.C. E. faecalis
Experimental: as §3
(§6) -3 Gram-positive: Enterococcus faecalis (ATCC® 19433^TM), Staphylococcus aureus (ATCC® 23235^TM), and Staphylococcus epidermidis (ATCC® 14990™).
as §5

[7] = tested on: Staphylococcus aureus (ATCC 23235); test: MIC/MBC broth dilution; format: cell-based; conditions: for MIC: Staphylococcus aureus, ATCC23235, read-out: M.I.C. S. aureus
Experimental: as §3, §6, §5

[8] = tested on: Staphylococcus epidermidis (ATCC 14990); test: MIC/MBC broth dilution; format: cell-based; conditions: for MIC: Staphylococcus epidermidis, ATCC14990, read-out: M.I.C. S. epidermidis
Experimental: as §3, §6, §5

[9] = tested on: NO production in LPS-stimulated RAW 264.7 macrophages; test: Griess assay, NO production; format: cell-based, murine; conditions: 25 µM, LPS 1 µg/mL, 24 h
Experimental: The Griess assay was performed using RAW 264.7 murine macrophages to study the anti-inflammatory activity in terms of NO production. RAW 264.7 cells were plated in the 48 multi-wells and, after 24 h, treated with the tested molecules (25 µM) and the lipopolysaccharide (LPS, Sigma Aldrich, Milan, Italy) at a final concentration of 1 µg/mL. LPS is able to induce inflammation by stimulating NO production in immune system cells such as macrophages. After 24 h, the cell medium Griess reagent (Sigma Aldrich, Milan, Italy) was mixed in with a ratio of 1:1. The Griess reagent allowed for the quantification of NO released by macrophages in the treatment medium. The mixture was left for 30 min under agitation and, subsequently, the absorbance at 540 nm was measured using a multiplate reader. The obtained absorbance allowed us to calculate the NO production % compared to the absorbance obtained for the positive control, in which the cells were treated with LPS.

[10] = tested on: Pseudomonas aeruginosa (ATCC 15442); test: MIC/MBC broth dilution; format: cell-based
Experimental: as §3
as §5, with “The results were representative of three independent experiments performed in triplicate.” left out

[11] = tested on: Salmonella typhimurium (ATCC 14028); test: MIC/MBC broth dilution; format: cell-based
Experimental: as §3
as §5, with “The results were representative of three independent experiments performed in triplicate.” left out

[12] = target: T1, human topoisomerase I (hTopoI) (Homo sapiens, UniProt P11387); test: Human topoisomerase I relaxation assay; format: biochemical; conditions: supercoiled pHOT1 DNA
T1 construct: purchased TopoGEN, Port Orange, FL, USA
T1 sequence (P11387 1-765): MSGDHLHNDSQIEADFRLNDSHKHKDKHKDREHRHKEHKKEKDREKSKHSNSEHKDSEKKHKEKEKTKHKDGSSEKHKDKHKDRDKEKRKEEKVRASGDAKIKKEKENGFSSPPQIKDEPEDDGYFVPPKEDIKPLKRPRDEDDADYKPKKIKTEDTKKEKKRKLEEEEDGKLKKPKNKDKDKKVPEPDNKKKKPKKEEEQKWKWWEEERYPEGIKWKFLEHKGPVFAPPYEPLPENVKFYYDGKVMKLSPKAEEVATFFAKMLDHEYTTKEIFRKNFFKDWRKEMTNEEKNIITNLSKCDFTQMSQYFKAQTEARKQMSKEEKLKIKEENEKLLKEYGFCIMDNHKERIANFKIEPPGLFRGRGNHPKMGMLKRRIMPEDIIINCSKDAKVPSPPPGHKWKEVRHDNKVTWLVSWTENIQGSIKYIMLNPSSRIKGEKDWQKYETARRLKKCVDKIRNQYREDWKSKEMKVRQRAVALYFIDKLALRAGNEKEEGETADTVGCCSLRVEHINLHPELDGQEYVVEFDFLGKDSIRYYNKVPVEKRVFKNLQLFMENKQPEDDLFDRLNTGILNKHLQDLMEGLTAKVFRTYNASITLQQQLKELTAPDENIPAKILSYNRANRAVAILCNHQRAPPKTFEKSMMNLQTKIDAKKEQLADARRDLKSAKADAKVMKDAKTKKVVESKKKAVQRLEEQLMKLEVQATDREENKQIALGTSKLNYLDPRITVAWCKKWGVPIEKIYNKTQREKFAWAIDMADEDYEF
Experimental: The human topoisomerase I relaxation assay was performed as reported in [86]. Shortly, the recombinant human topo I (TopoGEN, Port Orange, FL, USA) was incubated with the super-coiled pHOT1, in the presence or not of the tested compounds, at the indicated concentrations. The reaction products were then allowed to separate through the agarose gel electrophoresis, and ethidium bromide-stained DNA was visualized under UV light.

| Compound | IC50 [1] [µM] | IC50 [2] [µM] | IC50 (MCF-7; Homo sapiens, MCF7, 72 h) [µM] | IC50 (MDA-MB-231; Homo sapiens, MDA-MB-231, 72 h) [µM] | IC50 ([3]; Homo sapiens, MCF-10A) [µM] | M.I.C. E. coli [4] [µg/mL] | M.I.C. K. pneumoniae [5] [µg/mL] | M.I.C. E. faecalis [6] [µg/mL] | M.I.C. S. aureus [7] [µg/mL] | M.I.C. S. epidermidis [8] [µg/mL] | other results |
| --- | --- | --- | --- | --- | --- | --- | --- | --- | --- | --- | --- |
| Cn1c(=O)c2c(n(C)[c]([Au-][I])[n+]2C2CCCCC2O)n(C)c1=O (stereo not drawn) [AuL2, 1,3,7-Trimethylxanthin-9-[cyclohexan-2-ol-8-ylidene]Au(I) Iodide] | 155.5 ± 1 | > 500 |  |  |  | 150 | 150 | 150 | 150 | 100 | IC50 (MCF-7; 72 h): > 100 µM; IC50 (MDA-MB-231; 72 h): > 100 µM; IC50 [3]: > 100 µM; Reduction in NO production [9]: ~12.64%; M.B.C. E. coli [4]: > 200 µg/mL; M.B.C. K. pneumoniae [5]: > 200 µg/mL; M.B.C. E. faecalis [6]: > 200 µg/mL; M.B.C. S. aureus [7]: > 200 µg/mL; M.B.C. S. epidermidis [8]: > 125 µg/mL; M.B.C. P. aeruginosa [10]: > 125 µg/mL; M.I.C. P. aeruginosa [10]: 100 µg/mL; M.B.C. S. typhimurium [11]: > 200 µg/mL; M.I.C. S. typhimurium [11]: 150 µg/mL |
| Cn1c(=O)c2c(n(C)c1=O)[n+](C)cn2CCO [P-L3] |  |  | > 100 | > 100 | > 100 |  |  |  |  |  |  |
| Cn1c(=O)c2c(ncn2C)n(C)c1=O [Caffeine, 1,3,7-trimethylxanthine, reference compound] | > 500 | > 500 | > 500 | > 500 | > 500 | >200 | >200 | >200 | >200 | >200 | Inhibition of hTopo I supercoil relaxing activity ([12]; 1 µM): failed; IC50 ABTS scavenging [1]: did not show any scavenging capacity; IC50 DPPH scavenging [2]: did not show any scavenging capacity; MIC [4]: > 200 µg/mL; MIC [5]: > 200 µg/mL; MIC [6]: > 200 µg/mL; MIC [7]: > 200 µg/mL; MIC [8]: > 200 µg/mL; M.I.C. P. aeruginosa [10]: >200 µg/mL; MIC ([10]; Pseudomonas aeruginosa, ATCC15442, read-out: M.I.C. P. aeruginosa): > 200 µg/mL |
| N.N.[Cl][Pt][Cl] [Cisplatin, reference compound] |  |  |  |  |  |  |  |  |  |  | IC50 (MCF-7; 72 h): 26.2 ± 1.1 µM; IC50 (MDA-MB-231; 72 h): 32.2 ± 1 µM; IC50 [3]: 78.2 ± 1.2 µM; Inhibition of hTopo I supercoil relaxing activity ([12]; 50 µM): inhibited the hTopoI activity |
| Cn1c(=O)c2c(n(C)c1=O)[n+](C)cn2C1CCCCC1O (stereo not drawn) [P-L2, 9-[Cyclohexan-2-ol]-1,3,7-trimethylxantinium Iodide] |  |  | > 100 | > 100 | > 100 |  |  |  |  |  |  |

Now from value to molecule, other results behind:

| IC50 [1] [µM] | IC50 [2] [µM] | IC50 (MCF-7; Homo sapiens, MCF7, 72 h) [µM] | IC50 (MDA-MB-231; Homo sapiens, MDA-MB-231, 72 h) [µM] | Compound | IC50 ([3]; Homo sapiens, MCF-10A) [µM] | M.I.C. E. coli [4] [µg/mL] | M.I.C. K. pneumoniae [5] [µg/mL] | M.I.C. E. faecalis [6] [µg/mL] | M.I.C. S. aureus [7] [µg/mL] | M.I.C. S. epidermidis [8] [µg/mL] | other results |
| --- | --- | --- | --- | --- | --- | --- | --- | --- | --- | --- | --- |
| 54.5 ± 0.9 | 47 ± 1.2 |  |  | Cc1c(C)c2c(c(C)c1O)CCC(C)(C(=O)O)O2 (stereo not drawn) [Trolox, reference compound] |  |  |  |  |  |  |  |
| > 500 | > 500 | > 500 | > 500 | Cn1c(=O)c2[nH]cnc2n(C)c1=O [Theophylline, reference compound] | > 500 | >200 | >200 | >200 | >200 | >200 | IC50 ABTS scavenging [1]: did not show any scavenging capacity; IC50 DPPH scavenging [2]: did not show any scavenging capacity; MIC [4]: > 200 µg/mL; MIC [5]: > 200 µg/mL; MIC [6]: > 200 µg/mL; MIC [7]: > 200 µg/mL; MIC [8]: > 200 µg/mL |
|  |  | > 100 | > 100 | Cn1c(=O)c2c(n(C)c1=O)[n+](C)cn2CC(O)c1ccccc1 (stereo not drawn) [P-L1, 9-[(2-Hydroxy-2-phenyl)ethyl]-1,3,7-trimethylxanthinium Iodide] | > 100 |  |  |  |  |  |  |
